According to patent US10000469B2, “Heat shock protein 70 (hsp-70) receptor ligands” (Duke University, priority 2014, dated 2018):

Experiments:
caspase-3/7 = experiment: Caspase 3/7 assay in cancer cells; type: cell-based
Description: Caspase 3/7 Assay: The Amplite™ Fluorimetric Caspase3/7 assay kit (AAT Bioquest, Sunnyvale, Calif.) was used per the manufacturer's instructions. Briefly, a fluorometric indicator, Ac-DEVD-AMC, was used to determine caspase activity. […] Cells were seeded at 60,000 cells/well in a 96 well plate and treated with compound for the indicated period of time. Diluted caspase 3/7 assay solution was added to each well and incubated at room temperature for 2 hours protected from light, upon which time fluorescence was measured on the Victor X2 plate reader (Perkin Elmer, Waltham, Mass.).

[1] = HS-72 PK in plasma, kidney and liver; type: in vivo, mice
Description: HS-72 PK: Wild-type mice were injected IP with HS-72 and sacrificed 5 minutes, 1 hour, 4 hours, 8 hours, and 24 hours post injection. Untreated animals were included as control and called 0 minutes. Each time point consisted of 3 animals. At the indicated time points liver, kidney, and blood was harvested from each animal. Whole blood was centrifuged and only the plasma was retained. Whole liver and kidneys were frozen and stored at −80° C. until processing. Before quantifying HS-72 in the plasma and tissue a standard curve was made using HS-72 and N-(1-methyl-1H-benzo[d]imidazol-2-yl)-1-(pyrazin-2-yl)piperidine-3-carboxamide (“HS-156”), as the internal standard. HS-72 and HS-156 were diluted in water and were further diluted 1:4 in acetonitrile. The resulting solution was then filtered through a 0.2 μm PTFE membrane (VWR, Radnor, Pa.). 15 uL of the solution was run through an Eclipse Plus C18 column (Agilent, Santa Clara, Calif.) and analyzed by an Agilent Ion Trap 6130 LC-MS (Agilent, Santa Clara, Calif.). The total ion chromatogram (TIC), extracted ion chromatogram (EIC), UV chromatogram, and mass spectra (MS) were obtained for each run. The area under the curve from the EIC for HS-72 at 364-366 and for HS-156 at 337 was determined. The EIC area ratio for HS-72 compared to HS-156 was calculated and this ratio was used to plot a standard curve based on the known concentrations of HS-72. The plasma samples were processed in the same manner as in the standard curve and analyzed by LC-MS. The resulting EIC ratios from HS-72 compared to HS-156 were then determined, which was used to calculate the concentration of HS-72 in the diluted sample. The concentration in solution of HS-72 was adjusted for the 1:4 dilution that occurs during sample preparation. The final concentration of HS-72 in plasma was calculated per mL of plasma. The liver and kidney samples were weighed and homogenized in tissue lysis buffer. The resulting homogenate was then processed in the same manner as the plasma samples. The resulting EIC ratios from HS-72 compared to HS-156 were then determined, which was used to calculate the concentration of HS-72 in the diluted sample. The concentration in solution of HS-72 was adjusted for the 1:4 dilution that occurs during sample preparation. Final concentration of HS-72 in the kidney and liver was calculated per gram of tissue using the weight of each tissue measured before sample processing.

Hsp70i = Hsp70i (Homo sapiens, UniProt P0DMV8); experiment: HS-72 affinity resin pull-down from HEK293T lysate, Hsp70i; type: binding; design: endogenous in cells; host or cells: HEK 293T; conditions: free HS-72 incubated with lysate
Sequence of Hsp70i (P0DMV8 whole entry): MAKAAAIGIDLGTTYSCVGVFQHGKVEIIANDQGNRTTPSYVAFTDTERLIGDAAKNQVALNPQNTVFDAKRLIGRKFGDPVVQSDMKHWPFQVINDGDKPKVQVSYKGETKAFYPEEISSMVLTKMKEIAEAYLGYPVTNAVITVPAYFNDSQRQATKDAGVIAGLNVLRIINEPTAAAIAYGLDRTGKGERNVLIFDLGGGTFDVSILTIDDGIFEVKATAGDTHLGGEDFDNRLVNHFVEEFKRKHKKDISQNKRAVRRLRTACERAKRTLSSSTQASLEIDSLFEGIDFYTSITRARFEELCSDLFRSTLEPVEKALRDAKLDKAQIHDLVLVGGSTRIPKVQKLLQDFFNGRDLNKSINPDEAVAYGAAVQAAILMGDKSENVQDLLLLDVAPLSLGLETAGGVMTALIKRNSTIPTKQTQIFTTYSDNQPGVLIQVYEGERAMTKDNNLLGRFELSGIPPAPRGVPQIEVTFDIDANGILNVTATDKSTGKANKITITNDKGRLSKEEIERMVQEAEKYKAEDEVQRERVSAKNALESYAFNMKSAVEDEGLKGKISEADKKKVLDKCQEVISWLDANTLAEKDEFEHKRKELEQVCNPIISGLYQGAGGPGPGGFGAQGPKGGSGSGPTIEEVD
Description: HS-72 specifically targets Hsp70i over other members of the Hsp70 superfamily. To test the selectivity of the HS-72 scaffold against the broader purinome, HEK 293T cell extracts or pig bladder tissue lysates were applied to the ATP resin and eluted with HS-72, as described for FLECS. The eluates were characterized by SDS-PAGE, silver stain, and MS analysis. […] To more thoroughly determine the specificity of HS-72 for Hsp70i, the HEK 293T eluates were also analyzed for other Hsp70 family members Hsc70, Grp78, and Grp75, as well as Hsp90 by Western blot. […] Next, an affinity resin was synthesized using the HS-72 scaffold, similar to a previously described affinity resin targeting Hsp90 [Hughes et al. (2012). […] Bioorganic & medicinal chemistry 20, 3298-3305]. HEK 293T cell lysate was applied to the resin and subjected to several washes. To confirm selectivity of the HS-72 affinity resin for Hsp70i, free HS-72 was incubated with lysate to inhibit Hsp70i binding to the affinity resin. The linker on the resin was cleaved using sodium dithionite and the samples were subjected to SDS-PAGE and analyzed by Western blot, silver stain, and mass spectrometry. […] These studies identified HS-72 as the first example of a small molecule that can selectively discriminate Hsp70i from other members of the Hsp70 superfamily.

BT474 = experiment: Cell proliferation, BT474; type: cell-based
Description: Cell Proliferation: Cell proliferation was determined using a Hoechst stain (Sigma, St. Louis, Mo.) to quantify DNA. 5,000 cells of the designated cell line were plated in 96 well plates and treated the next day, designated as time point 0, with the indicated concentration of the specified compound maintained for the duration of the assay. At the indicated time points the media was removed and plated frozen at −80° C. Double distilled H2O was then added and the plates were incubated at 37° C. for 1 hour. After 1 hour the plates were frozen at −80° C. After freezing the plates were thawed and Hoechst stain was diluted 1:1000 in THE buffer (10 mM Tris, 2M NaCl, 1 mM Na2EDTA). The final fluorescence was measured on the Victor X2 plate reader at 355/460 nm, and cell proliferation was determined with the formula: % Cell Proliferation=100×(Sample fluorescence−background fluorescence)/(Control fluorescence−background fluorescence).

[2] = 24 hours, IP 20 mg/Kg, n=3, SEM

In the case of `CCCn1c(NC(=O)[C@H]2CCCN(c3cnccn3)C2)nc2ccccc21` [HS-72, (S)—N-(1-propyl-1H-benzo[d]imidazol-2-yl)-1-(pyrazin-2-yl)piperidine-3-carboxamide], the caspase activation (caspase-3/7; 6 hours and 24 hours, dose dependent) is reported as “reproducible across several cancer cell lines”, the caspase activation (caspase-3/7; various cancer cells) is reported as “inducing caspase activation in a dose dependent manner” and the plasma concentration ([1]; 5 minutes post IP injection, 20 mg/Kg, n=3, SEM) is reported as 70 ± 30 µM. The kidney concentration ([1]; 5 minutes, IP 20 mg/Kg, n=3, SEM) was 0.43 ± 0.08 µmol/g, the plasma concentration ([1]; 8 hours post IP injection, 20 mg/Kg, n=3, SEM) was 2 ± 0.2 µM and the liver concentration (peak) ([1]; 8 hours, IP 20 mg/Kg, n=3, SEM) was 2.26 ± 0.5 µmol/g. The kidney concentration [1, 2] was 0.02 ± 0.004 µmol/g, the liver concentration [1, 2] was 0.51 ± 0.11 µmol/g and the “plasma [HS-72] maintained” value ([1]; for at least 8 hours) was > 20 µM. For the same compound, the concentration at 24 hours ([1]; mouse, plasma, 24 hours post IP injection, 20 mg/Kg, read-out: plasma concentration, trace amounts) was < 10 µM, the half-life ([1]; mouse, plasma, IP 20 mg/Kg, n=3, SEM, read-out: T1/2 elimination from plasma (converted)) was 24 ± 6 min and the “metabolism in plasma, kidney and liver” value ([1]; parent MS ion of 365.2 Da detected intact) was “no evidence of rapid metabolism”. For the same compound, the “competition of Hsp70i binding to the affinity resin by free compound” value (Hsp70i) was “able to block this interaction” and the cell proliferation (BT474) was “inhibits proliferation”.
